This is an account of results in US20230072421A1, “TARGETED RADIOPHARMACEUTICALS FOR THE DIAGNOSIS AND TREATMENT OF PROSTATE CANCER” (Bayer AS, priority 2019, published 2023).

This assay concerns the target T1, PSMA-expressing LNCaP cells (Homo sapiens, UniProt Q04609).
T1 construct: PSMA-expressing LNCaP cells; endogenous in cells; host or cells: LNCaP
Kind of assay: Binding competition assay against 3H-PSMA-617 on LNCaP cells. As to conditions: LNCaP cells, 10 nM 3H-PSMA-617, 2 h at 37° C., triplicates; for remaining activity at 0.01 µM: competing non-radiolabeled compound 10 nM; for remaining activity at 0.1 µM: competing non-radiolabeled compound 100 nM. In a few lines: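 Compounds added to LNCaP cells in growth medium, 2 h at 37 °C, 5% CO2. After two ice-cold PBS washes, cells lysed in 0.3 M NaOH and bound radioactivity measured by liquid scintillation counting.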

T1 sequence (Q04609 whole entry): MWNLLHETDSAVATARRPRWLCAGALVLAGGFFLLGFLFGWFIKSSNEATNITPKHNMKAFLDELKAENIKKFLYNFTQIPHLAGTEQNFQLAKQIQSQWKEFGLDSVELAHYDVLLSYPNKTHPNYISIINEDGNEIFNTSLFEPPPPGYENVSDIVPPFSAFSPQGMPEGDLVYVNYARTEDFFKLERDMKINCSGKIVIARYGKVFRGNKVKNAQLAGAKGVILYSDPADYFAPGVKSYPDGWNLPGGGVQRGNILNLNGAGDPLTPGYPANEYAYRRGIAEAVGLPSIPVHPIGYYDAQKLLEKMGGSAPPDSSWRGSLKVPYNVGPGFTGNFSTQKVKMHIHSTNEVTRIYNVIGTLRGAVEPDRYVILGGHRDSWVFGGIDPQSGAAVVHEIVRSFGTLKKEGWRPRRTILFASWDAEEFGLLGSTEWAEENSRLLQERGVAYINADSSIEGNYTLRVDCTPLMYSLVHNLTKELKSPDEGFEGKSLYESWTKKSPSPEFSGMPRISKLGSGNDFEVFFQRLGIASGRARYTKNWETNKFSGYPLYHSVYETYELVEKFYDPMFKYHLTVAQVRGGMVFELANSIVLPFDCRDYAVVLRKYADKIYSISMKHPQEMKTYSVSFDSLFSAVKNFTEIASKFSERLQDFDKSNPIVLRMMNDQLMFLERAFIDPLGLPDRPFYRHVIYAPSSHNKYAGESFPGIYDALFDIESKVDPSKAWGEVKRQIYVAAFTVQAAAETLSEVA

As for `O=C(O)CC[C@H](NC(=O)N[C@@H](CCCCNC(=O)[C@H](Cc1cc2ccccc2cn1)NC(=O)[C@H]1CC[C@H](CNC(=O)CN2CCN(CC(=O)O)CCN(CC(=O)O)CCN(CC(=O)O)CC2)CC1)C(=O)O)C(=O)O` [Example 36-B, N^6-{3-(isoquinolin-3-yl)-N-[(1r,4S)-4-({2-[4,7,10-tris(carboxymethyl)-1,4,7,10-tetraazacyclododecan-1-yl]acetamido}methyl)cyclohexane-1-carbonyl]-L-alanyl}-N^2-{[(1S)-1,3-dicarboxypropyl]carbamoyl}-L-lysine], the remaining activity at 0.01 µM was 92% and the remaining activity at 0.1 µM amounted to 29%.

Regarding `CNc1cc(C[C@@H](NC(=O)[C@H]2CC[C@H](CN)CC2)C(=O)NCCCC[C@H](NC(=O)N[C@@H](CCC(=O)O)C(=O)O)C(=O)O)cc2ccccc12` [Example 37-A, (3R,10S,14S)-1-[(1r,4S)-4-(aminomethyl)cyclohexyl]-3-{[4-(methylamino)naphthalen-2-yl]methyl}-1,4,12-trioxo-2,5,11,13-tetraazahexadecane-10,14,16-tricarboxylic acid], the remaining activity at 0.01 µM turned out to be 145% and the remaining activity at 0.1 µM amounted to 75%.

In the case of `CNc1cc(C[C@@H](NC(=O)[C@H]2CC[C@H](CNC(=O)CN3CCN(CC(=O)O)CCN(CC(=O)O)CCN(CC(=O)O)CC3)CC2)C(=O)NCCCC[C@H](NC(=O)N[C@@H](CCC(=O)O)C(=O)O)C(=O)O)cc2ccccc12` [Example 37-B, (3R,10S,14S)-3-{[4-(methylamino)naphthalen-2-yl]methyl}-1,4,12-trioxo-1-[(1r,4S)-4-({2-[4,7,10-tris(carboxymethyl)-1,4,7,10-tetraazacyclododecan-1-yl]acetamido}methyl)cyclohexyl]-2,5,11,13-tetraazahexadecane-10,14,16-tricarboxylic acid], the remaining activity at 0.01 µM amounted to 55% and the remaining activity at 0.1 µM is 11%.

In the case of `NC[C@H]1CC[C@H](C(=O)N[C@H](Cc2ccc3c(c2)CCCO3)C(=O)NCCCC[C@H](NC(=O)N[C@@H](CCC(=O)O)C(=O)O)C(=O)O)CC1` [Example 38-A, N^6—{N-[(1r,4S)-4-(aminomethyl)cyclohexane-1-carbonyl]-3-(3,4-dihydro-2H-1-benzopyran-6-yl)-D-alanyl}-N^2-{[(1S)-1,3-dicarboxypropyl]carbamoyl}-L-lysine], the remaining activity at 0.01 µM was determined as 140% and the remaining activity at 0.1 µM was 106%.

Take `O=C(O)CC[C@H](NC(=O)N[C@@H](CCCCNC(=O)[C@@H](Cc1ccc2c(c1)CCCO2)NC(=O)[C@H]1CC[C@H](CNC(=O)CN2CCN(CC(=O)O)CCN(CC(=O)O)CCN(CC(=O)O)CC2)CC1)C(=O)O)C(=O)O` [Example 38-B, N^6-{3-(3,4-dihydro-2H-1-benzopyran-6-yl)-N-[(1r,4S)-4-({2-[4,7,10-tris(carboxymethyl)-1,4,7,10-tetraazacyclododecan-1-yl]acetamido}methyl)cyclohexane-1-carbonyl]-D-alanyl}-N^2-{[(1S)-1,3-dicarboxypropyl]carbamoyl}-L-lysine]: the remaining activity at 0.01 µM amounted to 76% and the remaining activity at 0.1 µM came out at 34%.

`CNc1cc2ccccc2cc1C[C@@H](NC(=O)[C@H]1CC[C@H](CNC(=O)CN2CCN(CC(=O)O)CCN(CC(=O)O)CCN(CC(=O)O)CC2)CC1)C(=O)NCCCC[C@H](NC(=O)N[C@@H](CCC(=O)O)C(=O)O)C(=O)O` [Example 39-B, (3R,10S,14S)-3-{[3-(methylamino)naphthalen-2-yl]methyl}-1,4,12-trioxo-1-[(1r,4S)-4-({2-[4,7,10-tris(carboxymethyl)-1,4,7,10-tetraazacyclododecan-1-yl]acetamido}methyl)cyclohexyl]-2,5,11,13-tetraazahexadecane-10,14,16-tricarboxylic acid]: the remaining activity at 0.01 µM worked out at 81% and the remaining activity at 0.1 µM was 32%.

Turning to `N[C@H]1CC[C@H](CNC(=O)N[C@@H](Cc2ccc3ccccc3c2)C(=O)NCCCC[C@H](NC(=O)N[C@@H](CCC(=O)O)C(=O)O)C(=O)O)CC1` [Example 40-A, (5S,12S,16S)-1-[(1r,4S)-4-aminocyclohexyl]-5-[(naphthalen-2-yl)methyl]-3,6,14-trioxo-2,4,7,13,15-pentaazaoctadecane-12,16,18-tricarboxylic acid], the remaining activity at 0.01 µM is 87% and the remaining activity at 0.1 µM amounted to 62%.

Turning to `NC[C@H]1CC[C@H](C(=O)N[C@H](Cc2csc3ccc(Cl)cc23)C(=O)NCCCC[C@H](NC(=O)N[C@@H](CCC(=O)O)C(=O)O)C(=O)O)CC1` [Example 41-A, N^6—{N-[(1r,4S)-4-(aminomethyl)cyclohexane-1-carbonyl]-3-(5-chloro-1-benzothiophen-3-yl)-D-alanyl}-N^2-{[(1S)-1,3-dicarboxypropyl]carbamoyl}-L-lysine], the remaining activity at 0.01 µM came to 82% and the remaining activity at 0.1 µM was determined as 61%.

Consider `NC[C@H]1CC[C@H](C(=O)N[C@H](Cc2ccc3ccncc3c2)C(=O)NCCCC[C@H](NC(=O)N[C@@H](CCC(=O)O)C(=O)O)C(=O)O)CC1` [Example 42-A, (3R,10S,14S)-1-[(1r,4S)-4-(aminomethyl)cyclohexyl]-3-[(isoquinolin-7-yl)methyl]-1,4,12-trioxo-2,5,11,13-tetraazahexadecane-10,14,16-tricarboxylic acid], for which the remaining activity at 0.01 µM was 86% and the remaining activity at 0.1 µM worked out at 78%.

For the molecule `O=C(O)CC[C@H](NC(=O)N[C@@H](CCCCNC(=O)[C@@H](Cc1ccc2ccncc2c1)NC(=O)[C@H]1CC[C@H](CNC(=O)CN2CCN(CC(=O)O)CCN(CC(=O)O)CCN(CC(=O)O)CC2)CC1)C(=O)O)C(=O)O` [Example 42-B, (3R,10S,14S)-3-[(isoquinolin-7-yl)methyl]-1,4,12-trioxo-1-[(1r,4S)-4-({2-[4,7,10-tris(carboxymethyl)-1,4,7,10-tetraazacyclododecan-1-yl]acetamido}methyl)cyclohexyl]-2,5,11,13-tetraazahexadecane-10,14,16-tricarboxylic acid], the remaining activity at 0.01 µM is 88% and the remaining activity at 0.1 µM was found to be 34%.

For `NC[C@H]1CC[C@H](C(=O)N[C@@H](Cc2csc3ccccc23)C(=O)NCCCC[C@H](NC(=O)N[C@@H](CCC(=O)O)C(=O)O)C(=O)O)CC1` [Example 43-A, N^6—{N-[(1r,4S)-4-(aminomethyl)cyclohexane-1-carbonyl]-3-(1-benzothiophen-3-yl)-L-alanyl}-N^2-{[(1S)-1,3-dicarboxypropyl]carbamoyl}-L-lysine], the remaining activity at 0.01 µM stood at 96% and the remaining activity at 0.1 µM worked out at 82%.

For the molecule `NC[C@H]1CC[C@H](C(=O)N[C@H](Cc2ccc3cnccc3c2)C(=O)NCCCC[C@H](NC(=O)N[C@@H](CCC(=O)O)C(=O)O)C(=O)O)CC1` [Example 44-A, (3R,10S,14S)-1-[(1r,4S)-4-(aminomethyl)cyclohexyl]-3-[(isoquinolin-6-yl)methyl]-1,4,12-trioxo-2,5,11,13-tetraazahexadecane-10,14,16-tricarboxylic acid], the remaining activity at 0.01 µM was 85% and the remaining activity at 0.1 µM was found to be 68%.

With `O=C(O)CC[C@H](NC(=O)N[C@@H](CCCCNC(=O)[C@@H](Cc1ccc2cnccc2c1)NC(=O)[C@H]1CC[C@H](CNC(=O)CN2CCN(CC(=O)O)CCN(CC(=O)O)CCN(CC(=O)O)CC2)CC1)C(=O)O)C(=O)O` [Example 44-B, (3R,10S,14S)-3-[(isoquinolin-6-yl)methyl]-1,4,12-trioxo-1-[(1r,4S)-4-({2-[4,7,10-tris(carboxymethyl)-1,4,7,10-tetraazacyclododecan-1-yl]acetamido}methyl)cyclohexyl]-2,5,11,13-tetraazahexadecane-10,14,16-tricarboxylic acid], the remaining activity at 0.01 µM was 75% and the remaining activity at 0.1 µM is 22%.

On to `NC[C@H]1CC[C@H](C(=O)N[C@H](Cc2ccc3cccnc3c2)C(=O)NCCCC[C@H](NC(=O)N[C@@H](CCC(=O)O)C(=O)O)C(=O)O)CC1` [Example 45-A, (3R,10S,14S)-1-[(1r,4S)-4-(aminomethyl)cyclohexyl]-1,4,12-trioxo-3-[(quinolin-7-yl)methyl]-2,5,11,13-tetraazahexadecane-10,14,16-tricarboxylic acid], for which the remaining activity at 0.01 µM was 93% and the remaining activity at 0.1 µM is 87%.

On to `O=C(O)CC[C@H](NC(=O)N[C@@H](CCCCNC(=O)[C@@H](Cc1ccc2cccnc2c1)NC(=O)[C@H]1CC[C@H](CNC(=O)CN2CCN(CC(=O)O)CCN(CC(=O)O)CCN(CC(=O)O)CC2)CC1)C(=O)O)C(=O)O` [Example 45-B, (3R,10S,14S)-1,4,12-trioxo-3-[(quinolin-7-yl)methyl]-1-[(1r,4S)-4-({2-[4,7,10-tris(carboxymethyl)-1,4,7,10-tetraazacyclododecan-1-yl]acetamido}methyl)cyclohexyl]-2,5,11,13-tetraazahexadecane-10,14,16-tricarboxylic acid], for which the remaining activity at 0.01 µM was found to be 90% and the remaining activity at 0.1 µM worked out at 47%.

Take `Cn1ccc(C(=O)NCCN(CCNC(=O)c2ccn(C)c(=O)c2O)CC(Cc2ccc(NC(=O)CCC(=O)N[C@H](CCCNC(=N)N)C(=O)N[C@H](CCCNC(=N)N)C(=O)NC[C@H]3CC[C@H](C(=O)N[C@@H](Cc4ccc5ccccc5c4)C(=O)NCCCCC(NC(=O)N[C@@H](CCC(=O)O)C(=O)O)C(=O)O)CC3)cc2)CN(CCNC(=O)c2ccn(C)c(=O)c2O)CCNC(=O)c2ccn(C)c(=O)c2O)c(O)c1=O` (stereo partly shown) [Example 46-E]: the remaining activity at 0.01 µM was 78% and the remaining activity at 0.1 µM was 66%.

As for `NC1CC2(C1)CC(C(=O)N[C@@H](Cc1ccc3ccccc3c1)C(=O)NCCCC[C@H](NC(=O)N[C@@H](CCC(=O)O)C(=O)O)C(=O)O)C2` (stereo partly drawn) [Example 47-A, (3S,10S,14S)-1-(6-aminospiro[3.3]heptan-2-yl)-3-[(naphthalen-2-yl)methyl]-1,4,12-trioxo-2,5,11,13-tetraazahexadecane-10,14,16-tricarboxylic acid], the remaining activity at 0.01 µM amounted to 94% and the remaining activity at 0.1 µM amounted to 43%.

As usually defined, the remaining activity is the signal under treatment as a percentage of the control signal.
